# Test results as given in EP0908457B1, “3-(1,2-benzisothiazol- and isoxazol-5-Y1)-2,4(1H,3H)-pyrimidinedione or thione and 3-(1,2-benzisothiazol- and isoxazol-5-y1)-4(3H)-pyrimidinone or thione herbicidal agents” (BASF AKTIENGESELLSCHAFT, priority 1997, dated 1999).
# How the values were obtained:
# [1] = tested on: Cyperus serotinus, Rottb.; assay: Preemergence weed control under flooded paddy conditions, CYPSE (Flatsedge); format: in vivo; conditions: for CYPSE: herbicidal effect rating 0-9, three to four weeks after treatment; for herbicidal effect rating, CYPSE: meaning of each grade not given here
# [2] = tested on: Cyperus iria; assay: Preemergence weed control under flooded paddy conditions, CYPIR (Rice Flatsedge); format: in vivo; conditions: flooded paddy; for CYPIR: herbicidal effect rating 0-9, three to four weeks after treatment; for herbicidal effect rating, CYPIR: meaning of each grade not given here
# [3] = tested on: Monochoria vaginalis, Presl.; assay: Preemergence weed control under flooded paddy conditions, MOOVA (Monochoria); format: in vivo; conditions: flooded paddy; for MOOVA: herbicidal effect rating 0-9, three to four weeks after treatment; for herbicidal effect rating, MOOVA: meaning of each grade not given here
# [4] = tested on: Echinochloa oryzoides (Ard.) Fritsch.; assay: Preemergence weed control under flooded paddy conditions, ECHORC (Watergrass (Calif.)); format: in vivo; conditions: flooded paddy; for ECHORC: herbicidal effect rating 0-9, three to four weeks after treatment; for herbicidal effect rating, ECHORC: meaning of each grade not given here
# [5] = tested on: Oryza sativa, (L.) Tebonnet; assay: Rice tolerance to post-transplant applications under flooded paddy conditions (Example 187), ORYSAT (Rice, Tebonnet); conditions: for herbicidal effect rating ORYSAT: rated 3-4 weeks after treatment; for ORYSAT herbicidal rating (rice tolerance) / herbicidal effect rating, ORYSAT (rice tolerance): rated three to four weeks after treatment; for ORYSAT: herbicidal effect rating 0-9, three to four weeks after treatment; for herbicidal effect rating ORYSAT: meaning of each grade not given here
# [6] = tested on: Sagittaria pygmaea, L.; assay: Preemergence weed control under flooded paddy conditions, SAGPY (Arrowhead (Pygmaea)); format: in vivo; conditions: flooded paddy; for SAGPY: herbicidal effect rating 0-9, three to four weeks after treatment; for herbicidal effect rating, SAGPY: meaning of each grade not given here
# [7] = Rate 0.0320 kg/ha, preemergence, rated 3-4 weeks after treatment
# [8] = Rate 0.0620 kg/ha, preemergence, rated 3-4 weeks after treatment
# [9] = Rate 0.1250 kg/ha, preemergence, rated 3-4 weeks after treatment
# [10] = Rate 0.2500 kg/ha, preemergence, rated 3-4 weeks after treatment
# [11] = Rate 0.5000 kg/ha, preemergence, rated 3-4 weeks after treatment
# [12] = 0.0620 kg/ha, preemergence, rated three to four weeks after treatment
# [13] = 0.0320 kg/ha, preemergence, rated three to four weeks after treatment
# [14] = 0.1250 kg/ha, preemergence, rated three to four weeks after treatment
# [15] = 0.2500 kg/ha, preemergence, rated three to four weeks after treatment
# [16] = 0.0320 kg/ha, preemergence weeds
# [17] = 0.0620 kg/ha, preemergence weeds
# [18] = 0.1250 kg/ha, preemergence weeds
# [19] = 0.2500 kg/ha, preemergence weeds
# [20] = 0.0625 kg/ha, preemergence, rated three to four weeks after treatment
# [21] = 0.0313 kg/ha, preemergence, rated three to four weeks after treatment
# [22] = 0.0315 kg/ha, preemergence weeds, rated three to four weeks after treatment
# [23] = 0.0630 kg/ha, preemergence weeds, rated three to four weeks after treatment
structure (smiles),measurement,setting,value
"CC(C)S(=O)(=O)NC(=O)COc1ccccc1-c1nsc2ccc(-n3c(=O)cc(C(F)(F)F)n(C)c3=O)cc12 [Example 555, Acetamide, 2-{o-{5-[3,6-dihydro-3-methyl-2,6-dioxo-4-(trifluoromethyl)-1(2H)-pyrimidinyl)-1,2-benzisothiazol-3-yl}phenoxy}-N-(isopropylsulfonyl)-]","herbicidal effect rating, CYPSE",[1]; [7],4.0
same,"herbicidal effect rating, CYPSE",[1]; [8],6.0
same,"herbicidal effect rating, CYPSE",[1]; [9],8.0
same,"herbicidal effect rating, CYPSE",[1]; [10],8.0
same,"herbicidal effect rating, CYPSE",[1]; [11],9.0
same,"herbicidal effect rating, CYPIR",[2]; [7],4.0
same,"herbicidal effect rating, CYPIR",[2]; [8],6.0
same,"herbicidal effect rating, CYPIR",[2]; [9],9.0
same,"herbicidal effect rating, CYPIR",[2]; [10],9.0
same,"herbicidal effect rating, CYPIR",[2]; [11],3.0
same,"herbicidal effect rating, MOOVA",[3]; [7],9.0
same,"herbicidal effect rating, MOOVA",[3]; [8],9.0
same,"herbicidal effect rating, MOOVA",[3]; [9],9.0
same,"herbicidal effect rating, MOOVA",[3]; [10],9.0
same,"herbicidal effect rating, MOOVA",[3]; [11],9.0
same,"herbicidal effect rating, ECHORC",[4]; [7],1.6
same,"herbicidal effect rating, ECHORC",[4]; [8],2.3
same,"herbicidal effect rating, ECHORC",[4]; [9],4.6
same,"herbicidal effect rating, ECHORC",[4]; [10],9.0
same,"herbicidal effect rating, ECHORC",[4]; [11],9.0
same,herbicidal effect rating ORYSAT,[5]; Rate 0.0320 kg/ha,6.0
same,herbicidal effect rating ORYSAT,[5]; Rate 0.0620 kg/ha,6.0
same,herbicidal effect rating ORYSAT,[5]; Rate 0.1250 kg/ha,8.0
same,herbicidal effect rating ORYSAT,[5]; Rate 0.2500 kg/ha,9.0
same,herbicidal effect rating ORYSAT,[5]; Rate 0.5000 kg/ha,3.0
same,"herbicidal effect rating, SAGPY",[6]; [7],0.0
same,"herbicidal effect rating, SAGPY",[6]; [8],0.0
same,"herbicidal effect rating, SAGPY",[6]; [9],2.0
same,"herbicidal effect rating, SAGPY",[6]; [10],7.0
same,"herbicidal effect rating, SAGPY",[6]; [11],0.0
"COc1ccc(C)cc1-c1nsc2cc(F)c(-n3c(=O)cc(C(F)(F)F)n(C)c3=O)cc12 [Example 462, 2,4(1H,3H)-Pyrimidinedione, 3-[6-fluoro-3-(6-methoxy-m-tolyl)-1,2-benzisothiazol-5-yl]-1-methyl-6-(trifluoromethyl)-]",CYPSE herbicidal rating,[1]; [12],3.0
same,CYPIR herbicidal rating,[2]; [13],9.0
same,CYPIR herbicidal rating,[2]; [12],9.0
same,CYPIR herbicidal rating,[2]; [14],9.0
same,CYPIR herbicidal rating,[2]; [15],9.0
same,MOOVA herbicidal rating,[3]; [13],9.0
same,MOOVA herbicidal rating,[3]; [12],9.0
same,MOOVA herbicidal rating,[3]; [14],9.0
same,MOOVA herbicidal rating,[3]; [15],9.0
same,ECHORC herbicidal rating,[4]; [13],9.0
same,ECHORC herbicidal rating,[4]; [12],9.0
same,ECHORC herbicidal rating,[4]; [14],9.0
same,ECHORC herbicidal rating,[4]; [15],9.0
same,ORYSAT herbicidal rating (rice tolerance),[5]; 0.0320 kg/ha,5.0
same,ORYSAT herbicidal rating (rice tolerance),[5]; 0.0620 kg/ha,5.0
same,ORYSAT herbicidal rating (rice tolerance),[5]; 0.2500 kg/ha,6.0
same,SAGPY herbicidal rating,[6]; [13],1.0
same,SAGPY herbicidal rating,[6]; [12],4.0
same,SAGPY herbicidal rating,[6]; [14],5.0
same,SAGPY herbicidal rating,[6]; [15],6.0
"Cc1ccc(OCC(=O)NS(C)(=O)=O)c(-c2noc3cc(F)c(-n4c(=O)cc(C(F)(F)F)n(C)c4=O)cc23)c1 [Example 428, Acetamide, 2-{{2-{5-[3,6-dihydro-3-methyl-2,6-dioxo-4-(trifluoromethyl)-1(2H)-pyrimidinyl]-6-fluoro-1,2-benzisoxazol-3-yl}-p-tolyl}oxy}-N-(methylsulfonyl)-]",CYPSE,[1]; [16],0.0
same,CYPSE,[1]; [17],0.0
same,CYPIR,[2]; [16],0.0
same,CYPIR,[2]; [17],2.0
same,CYPIR,[2]; [18],4.0
same,CYPIR,[2]; [19],7.0
same,MOOVA,[3]; [16],9.0
same,MOOVA,[3]; [17],9.0
same,MOOVA,[3]; [18],9.0
same,MOOVA,[3]; [19],9.0
same,ECHORC,[4]; [16],2.0
same,ECHORC,[4]; [17],3.0
same,ECHORC,[4]; [18],6.0
same,ECHORC,[4]; [19],9.0
same,ORYSAT,[5]; 0.0320 kg/ha,0.0
same,ORYSAT,[5]; 0.0620 kg/ha,2.0
same,ORYSAT,[5]; 0.1250 kg/ha,6.0
same,ORYSAT,[5]; 0.2500 kg/ha,6.0
same,SAGPY,[6]; [16],0.0
same,SAGPY,[6]; [17],0.0
same,SAGPY,[6]; [18],2.0
same,SAGPY,[6]; [19],6.0
"CCc1ccc(OC)c(-c2nsc3ccc(-n4c(=O)cc(C(F)(F)F)n(C)c4=O)cc23)c1 [Example 45, 3-[3-(5-Ethyl-2-methoxyphenyl)-1,2-benzisothiazol-5-yl]-1-methyl-6-(trifluoromethyl)-2,4(1H,3H)-pyrimidinedione]","herbicidal effect rating, CYPSE",[1]; [20],2.0
same,"herbicidal effect rating, CYPSE",[1]; [14],9.0
same,"herbicidal effect rating, CYPSE",[1]; [15],9.0
same,"herbicidal effect rating, CYPIR",[2]; [21],6.0
same,"herbicidal effect rating, CYPIR",[2]; [20],9.0
same,"herbicidal effect rating, CYPIR",[2]; [14],9.0
same,"herbicidal effect rating, CYPIR",[2]; [15],9.0
same,"herbicidal effect rating, MOOVA",[3]; [21],9.0
same,"herbicidal effect rating, MOOVA",[3]; [20],9.0
same,"herbicidal effect rating, MOOVA",[3]; [14],9.0
same,"herbicidal effect rating, MOOVA",[3]; [15],9.0
same,"herbicidal effect rating, ECHORC",[4]; [21],9.0
same,"herbicidal effect rating, ECHORC",[4]; [20],9.0
same,"herbicidal effect rating, ECHORC",[4]; [14],9.0
same,"herbicidal effect rating, ECHORC",[4]; [15],9.0
same,"herbicidal effect rating, ORYSAT (rice tolerance)",[5]; 0.0313 kg/ha,2.0
same,"herbicidal effect rating, ORYSAT (rice tolerance)",[5]; 0.0625 kg/ha,2.0
same,"herbicidal effect rating, ORYSAT (rice tolerance)",[5]; 0.1250 kg/ha,3.0
same,"herbicidal effect rating, ORYSAT (rice tolerance)",[5]; 0.2500 kg/ha,3.0
same,"herbicidal effect rating, SAGPY",[6]; [21],0.0
same,"herbicidal effect rating, SAGPY",[6]; [20],0.0
same,"herbicidal effect rating, SAGPY",[6]; [14],4.0
same,"herbicidal effect rating, SAGPY",[6]; [15],6.0
"Cc1ccc(OCC(=O)OC2C=CCCC2)c(-c2nsc3ccc(-n4c(=O)cc(C(F)(F)F)n(C)c4=O)cc23)c1 (centres unmarked) [Example 185, 2-Cyclohexen-1-yl {{2-{5-[3,6-dihydro-3-methyl-2,6-dioxo-4-(trifluoromethyl)-1(2H)-pyrimidinyl]-1,2-benzisothiazol-3-yl}-p-tolyl}oxy}acetate]","herbicidal effect rating, CYPSE",[1]; [22],0.0
same,"herbicidal effect rating, CYPSE",[1]; [23],0.0
same,"herbicidal effect rating, CYPIR",[2]; [22],0.0
same,"herbicidal effect rating, CYPIR",[2]; [23],0.0
same,"herbicidal effect rating, MOOVA",[3]; [22],9.0
same,"herbicidal effect rating, MOOVA",[3]; [23],9.0
same,"herbicidal effect rating, ECHORC",[4]; [22],0.0
same,"herbicidal effect rating, ECHORC",[4]; [23],0.0
same,"herbicidal effect rating, ORYSAT (rice tolerance)",[5]; 0.0315 kg/ha,0.0
same,"herbicidal effect rating, ORYSAT (rice tolerance)",[5]; 0.0630 kg/ha,0.0
same,"herbicidal effect rating, SAGPY",[6]; [22],0.0
same,"herbicidal effect rating, SAGPY",[6]; [23],0.0
